Data from US4874779A, “Mitomycin phosphate derivatives” (priority 1988, dated 1989).
Where a name gives a salt, the structure may show the parent alone. Read-outs that look alike come from different tables or passages of the source.

How the values were obtained:
human lung tumor H2981 = test: Antitumor activity against subcutaneous human lung tumor H2981 xenograft in Balb C nu/nu female mice; format: in vivo; details: for time required to reach an average tumor volume of 750 mm^3: IIa 0.2 ml of 1 mg/ml, V 0.2 ml of 3 mg/ml, i.p. days 15, 21, 31, 37, untreated control 27 days
Protocol: The arrows indicate the days on which drugs were given.
Antitumor activity of the compound of Example 1 (V) was evaluated in Balb C nu/nu female mice (4-6 weeks old, purchased from Life Sciences, St. Petersburg, Fl) implanted subcutaneously with a xenograft of human lung tumor H2981 in the right hind flank. Compound IIa served as positive control. Drug treatment was initiated on day 15 (day 0 being the day of tumor implant) when the tumors were approximately 100 mm^3 in volume. 0.2 Ml of the test compounds (1 mg/ml for IIa and 3 mg/ml for V in phosphate-buffered saline) were injected intraperitoneally on days 15, 21, 31, and 37. The results are graphically shown in FIG. 1 and indicate that the time required to reach an average tumor volume of 750 mm^3 was 45 days in mice treated with IIa, 63 days in mice treated with V, and 27 days in the untreated control group.

[1] = Relative toxicity in Balb C nu/nu mice; format: in vivo; details: for LD50 / MTD at 600 h: mouse, in vivo, ip; for LD50: two equal doses spaced 4 days apart; for MTD at 600 h: 4 equal doses over a 25 day period, read-out: total amount tolerated
Protocol: The relative toxicities of IIa and V were determined in Balb C nu/nu mice. […] Total amounts of up to 40 mg/kg of IIa and 100 mg/kg of V were tolerated if given in 4 equal doses over a 25 day period.

[2] = system: human lung tumor cell line H2981; test: Cytotoxicity to H2981 cells by inhibition of 3H-Thy incorporation; format: cell-based; details: for cytotoxic activity (in words): without alkaline phosphatase pre-treatment; for IC50: Homo sapiens
Protocol: Cytotoxicity of compounds V, IIa, and mitomycin C was determined using human lung tumor cell line H2981. Thus a suspension of H2981 cells in Iscove's medium (IMDM) containing 10% fetal calf serum were plated into 96-well microtiter plates (10,000 cells/well). After 1 hr, the medium was removed, a pH 7.2 phosphate buffered saline solution (PBS) of the drug was added, and incubation at 37° C. was commenced for 1 hour. The cells were then washed twice, and incubation was continued an additional 17 hours, followed by a 6 hour pulse with ^3 H-Thy (1.0 μCi/well). The plates were frozen at -70° C. to detach the cells, and the cells were harvested onto glass fiber discs. The filters were counted on a Beckman 3701 scintillation counter. Inhibition of ^3 H-Thy incorporation was used as an indicator for cytotoxic effects.

| Structure (SMILES) | time required to reach an average tumor volume of 750 mm^3 (human lung tumor H2981) | LD50 [1] | MTD at 600 h [1] | cytotoxic activity (in words) ([2]; H2981 cells) | IC50 ([2]; H2981, 1 h, pH 7.2, read-out: IC50 (cytotoxicity, inhibition of 3H-Thy incorporation)) | IC50 ([2]; H2981 cells, 1 hour drug exposure in pH 7.2 PBS at 37° C., 17 hours further incubation, 6 hour 3H-Thy pulse, read-out: IC50 (cytotoxicity, inhibition of 3H-Thy incorporation)) | antitumor effect compared with the corresponding alcohol (IIa) (human lung tumor H2981; H2981 xenograft, i.p.) | tolerability of prodrug (in words) ([1]; relative to IIa) | cytotoxicity after pre-treatment with alkaline phosphatase (in words) ([2]; H2981 cells, V pre-treated with alkaline phosphatase) |
| --- | --- | --- | --- | --- | --- | --- | --- | --- | --- |
| COC12C(COC(N)=O)C3=C(C(=O)C(C)=C(NCCO)C3=O)N1CC1NC12 (centres unmarked) [IIa] | 45 days | 45 mg/kg | ≥ 40 mg/kg | highly cytotoxic | ~1 µM |  |  |  |  |
| CO[C@@]12[C@H](COC(N)=O)C3=C(C(=O)C(C)=C(N)C3=O)N1C[C@@H]1N[C@@H]12 [mitomycin C] |  |  |  | highly cytotoxic |  | ~1 µM |  |  |  |
| COC12C(COC(N)=O)C3=C(C(=O)C(C)=C(NCCOP(=O)(O)O)C3=O)N1CC1NC12 (centres unmarked) [Example 1, 9a-Methoxy-7-[[(phosphonooxy)ethyl]amino]mitosane disodium salt] | 63 days | 90 mg/kg | ≤ 100 mg/kg | A small amount of cytotoxic activity |  |  | stronger antitumor effect than the corresponding alcohol | significantly more prodrug was tolerated because of its reduced toxicity | cytotoxicity comparable to that of IIa and mitomycin C |
